Assay results taken from PubChem BioAssay (NCI).
Values joined by “and” are separate entries in the source; they are usually repeats but may differ in a detail not shown here. Equal entries are not always repeated.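 Five concentrations, 48 hours, 96-well plates. GI50 is the concentration that inhibits growth by half. Definition used: TGI = concentration required for complete inhibition of growth.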

Key:
Assay in all cases: DTP human tumour cell line panel, 48 h
EKVX NSCLC = system: EKVX NSCLC
OVCAR-3 ovarian = system: OVCAR-3 ovarian
DU-145 prostate = system: DU-145 prostate
A498 renal = system: A498 renal
HOP-62 NSCLC = system: HOP-62 NSCLC
NCI-H522 lung = system: NCI-H522 lung
A549 NSCLC = system: A549 NSCLC
HT29 colon = system: HT29 colon
NCI/ADR-RES ovarian = system: NCI/ADR-RES ovarian
NCI-H23 lung = system: NCI-H23 lung
NCI-H460 lung = system: NCI-H460 lung

SMILES | TGI (EKVX NSCLC) | TGI (OVCAR-3 ovarian) | TGI (DU-145 prostate) | TGI (A498 renal) | TGI (HOP-62 NSCLC) | TGI (NCI-H522 lung) | TGI (A549 NSCLC) | TGI (HT29 colon) | TGI (NCI/ADR-RES ovarian) | TGI (NCI-H23 lung) | TGI (NCI-H460 lung) | GI50 (OVCAR-3 ovarian) | GI50 (A498 renal) | GI50 (HOP-62 NSCLC) | GI50 (NCI-H522 lung) | GI50 (NCI-H23 lung) | GI50 (NCI-H460 lung)
COc1cc(C(=O)N(C(=S)OC23CC4CC(CC(C4)C2)C3)c2ccccc2)cc(OC)c1OC | 48.1 µM | > 100 µM | > 100 µM | 92.5 µM | > 100 µM | 25.9 µM | > 100 µM | 41.8 µM | > 100 µM | > 100 µM | > 100 µM |  |  |  |  |  | 
COC(=O)C1SC[C@H]2C(=O)N(c3ccccc3)C(=O)N12 (stereo partly drawn) | > 100 µM | > 100 µM | > 100 µM | > 100 µM | > 100 µM | > 100 µM | > 100 µM | > 100 µM | > 100 µM | > 100 µM | > 100 µM |  |  |  |  |  | 
COC(=O)C1(Cc2ccc(C)cc2)Cc2c(C)cccc2C1=O (stereo not drawn) | > 100 µM | 34.5 µM | 72 µM | 41.8 µM | 65.5 µM | 42.1 µM | 54.5 µM | 34.2 µM | 80.9 µM | > 100 µM | 39.2 µM |  |  |  |  |  | 
Nc1nc(Cc2ccccc2)nc(Cc2ccccc2)c1-c1ccccc1 | > 100 µM | 37.2 µM | 56.1 µM | 46.7 µM | 54 µM | 46.1 µM | > 100 µM | > 100 µM | 55 µM | 45.2 µM | > 100 µM |  |  |  |  |  | 
COc1ccc(-c2nc(SC)n(C3OC(COC(C)=O)C(OC(C)=O)C(OC(C)=O)C3OC(C)=O)c(=O)c2C#N)cc1 (stereo not drawn) | > 100 µM | > 100 µM | > 100 µM | 44.5 µM and > 100 µM | 52.7 µM and > 100 µM | 72.7 µM and > 100 µM | > 100 µM | > 100 µM | > 100 µM | > 100 µM | > 100 µM | 38.2 µM and > 100 µM | 8.43 µM and 44.1 µM | 24.4 µM and > 100 µM | 18.7 µM and > 100 µM | 35.7 µM and > 100 µM | 80.4 µM and 14.4 µM
ClCCc1ccccc1CC1=NCCc2ccccc21 | > 100 µM | > 100 µM | > 100 µM | > 100 µM | > 100 µM | 44 µM | > 100 µM | 46.3 µM | 75.6 µM | 74.5 µM | 62.7 µM |  |  |  |  |  | 
C=C(C1=CC(=O)C(C)(C)O1)[C@@H]1CC=C([C@@H]2CC[C@H]3[C@@]2(C)CC[C@H]2C(C)(C)C(=O)[C@H](OC(=O)CC(C)(O)CC(=O)O)C[C@]32C)[C@H](O)O1 (stereo partly drawn) | 29.8 µM | 23.6 µM | 45.6 µM | 26 µM | 35 µM | 25.4 µM | 40.3 µM | 34.4 µM | 51.3 µM | 27.5 µM | 40.7 µM |  |  |  |  |  | 
CCOC1=NC(C(F)(F)F)(C(F)(F)F)N=C(N2CCCCC2)O1 | > 100 µM | > 100 µM | > 100 µM | > 100 µM | > 100 µM | > 100 µM | > 100 µM | > 100 µM | > 100 µM | > 100 µM | > 100 µM |  |  |  |  |  | 
CCOC(=O)/C=C(/C(=O)OCC)n1ccc(=O)n(CC(=O)OCC)c1=O | 4.87 µM | 2.44 µM | 17.1 µM | 28 µM | 34.7 µM | 0.624 µM | 16.8 µM | 3.24 µM | 8.14 µM | 3.77 µM | 15.1 µM |  |  |  |  |  | 
COc1ccc2c(c1)c(=O)c1c(NCCCN(C)C)ccc3ncn2c31 | 27 µM | 26.7 µM | 18.7 µM | 24.2 µM | 15 µM | 21.4 µM | 14.5 µM | 8.21 µM | 16.4 µM | 21 µM | 8.03 µM |  |  |  |  |  | 
O=C1CSC(c2cccc(Oc3ccccc3)c2)N1c1cccc(Cl)c1Cl (stereo not drawn) | 99.3 µM | > 100 µM | > 100 µM | 93.5 µM | > 100 µM | 61.1 µM | > 100 µM | 63.1 µM | 59.9 µM | 91.4 µM | 71.5 µM |  |  |  |  |  | 
O=C(Nc1nccs1)NS(=O)(=O)n1cnc2ccccc21 | > 100 µM | > 100 µM | > 100 µM | > 100 µM | > 100 µM | > 100 µM | > 100 µM | > 100 µM | > 100 µM | > 100 µM | > 100 µM |  |  |  |  |  | 
CCCCSC1=N/C(=C\c2ccc(N(C)C)cc2)C(Cl)=N1 | > 100 µM | > 100 µM | > 100 µM | > 100 µM | > 100 µM | > 100 µM | > 100 µM | > 100 µM | > 100 µM | > 100 µM | > 100 µM |  |  |  |  |  | 
C=COC(=O)N1C2CCCC(Cl)(C(C)=O)C1CC2 (stereo not drawn) | > 100 µM | > 100 µM | > 100 µM | > 100 µM | > 100 µM | > 100 µM | > 100 µM | > 100 µM | > 100 µM | > 100 µM | > 100 µM |  |  |  |  |  | 
NS(=O)(=O)c1nnc(NC(=O)/C=C/C(=O)O)s1 | > 100 µM | > 100 µM | > 100 µM | > 100 µM | > 100 µM | > 100 µM | > 100 µM | > 100 µM | > 100 µM | > 100 µM | > 100 µM |  |  |  |  |  | 
CCOc1cc(/C=C2\N=C(c3ccccc3)N(c3nc4ccccc4s3)C2=O)ccc1O | > 100 µM | > 100 µM | > 100 µM | > 100 µM | > 100 µM | 60 µM |  | > 100 µM | 67.8 µM | 77.8 µM | > 100 µM |  |  |  |  |  | 
CC(C)C[C@H](NC(=O)CCc1cccc2ccccc12)B(O)O | 64.2 µM | 1.86 µM | > 65.6 µM | 6.12 µM | 14.3 µM | 4.95 µM | 49.7 µM | 6.27 µM | 11.7 µM | 7.81 µM | 19.5 µM |  |  |  |  |  | 
COc1ccc(C(=O)N(Cc2cccnc2)C(=S)N(Cc2cccnc2)C(=O)c2ccc(OC)cc2)cc1 | > 100 µM | > 100 µM | > 100 µM | > 100 µM | > 100 µM | > 100 µM | > 100 µM | > 100 µM | > 100 µM | > 100 µM | > 100 µM |  |  |  |  |  | 
